Values quoted from earlier work, collected in patent US20130085131A1, “HETEROCYCLIC COMPOUNDS AND THEIR USES” (Amgen Inc., priority 2010, published 2013).

Assays:
[1] = test system: mouse model of rheumatoid arthritis
[2] = test system: model of systemic lupus erythematosis; conditions: in vivo
p110δ = target: T1, p110δ (Homo sapiens, UniProt O00329)
T1 sequence (O00329 1-1044): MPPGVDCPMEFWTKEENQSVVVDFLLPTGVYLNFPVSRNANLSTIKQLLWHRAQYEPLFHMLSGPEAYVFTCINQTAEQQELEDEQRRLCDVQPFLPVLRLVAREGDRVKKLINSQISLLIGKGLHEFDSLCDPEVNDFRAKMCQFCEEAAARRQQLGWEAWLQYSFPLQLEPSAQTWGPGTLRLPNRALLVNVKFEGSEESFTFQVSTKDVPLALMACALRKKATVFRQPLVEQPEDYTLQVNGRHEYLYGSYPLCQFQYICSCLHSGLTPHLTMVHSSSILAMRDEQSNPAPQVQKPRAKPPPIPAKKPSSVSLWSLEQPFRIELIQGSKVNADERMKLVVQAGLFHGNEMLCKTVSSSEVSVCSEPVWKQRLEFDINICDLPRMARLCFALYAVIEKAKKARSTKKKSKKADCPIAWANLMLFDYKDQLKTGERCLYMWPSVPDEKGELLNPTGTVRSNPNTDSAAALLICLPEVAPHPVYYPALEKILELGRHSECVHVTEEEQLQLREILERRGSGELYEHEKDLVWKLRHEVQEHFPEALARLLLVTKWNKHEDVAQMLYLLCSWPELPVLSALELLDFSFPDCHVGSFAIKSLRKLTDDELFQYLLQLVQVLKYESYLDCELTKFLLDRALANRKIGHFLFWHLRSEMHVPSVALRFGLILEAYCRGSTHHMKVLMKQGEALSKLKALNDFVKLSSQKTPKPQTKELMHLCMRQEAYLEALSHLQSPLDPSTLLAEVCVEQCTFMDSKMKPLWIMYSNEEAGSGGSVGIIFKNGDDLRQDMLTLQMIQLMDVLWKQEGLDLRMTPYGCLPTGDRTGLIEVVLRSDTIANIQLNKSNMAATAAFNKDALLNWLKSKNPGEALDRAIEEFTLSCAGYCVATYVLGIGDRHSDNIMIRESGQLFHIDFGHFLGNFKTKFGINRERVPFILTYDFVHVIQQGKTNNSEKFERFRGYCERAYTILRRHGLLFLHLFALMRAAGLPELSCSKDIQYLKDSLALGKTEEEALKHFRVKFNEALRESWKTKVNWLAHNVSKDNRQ

[3] = test system: murine model of allergic disease; conditions: absence of functional delta (IC 87114 and p110δ D910A mice)
murine model of asthma = conditions: ovalbumin-induced airway inflammation

Compound | efficacy in a mouse model of rheumatoid arthritis [1] | onset of disease in a model of systemic lupus erythematosis [2] | inhibition of p110δ (p110δ) | activity against any protein kinases tested (protein kinases) | passive cutaneous anaphylaxis (PCA) [3] | inflammation and disease in a murine model of asthma (murine model of asthma)
O=C1NC(=O)/C(=C\c2ccc3nccnc3c2)S1 [AS 605240] | efficacious | delay onset of disease |  |  |  | 
Cc1ccccc1-n1c(Cn2cnc3c(N)ncnc32)nc2cccc(C)c2c1=O [IC87114] |  |  | high nanomolar range (triple digit) | no activity | significantly reduced | significantly ameliorate
